# According to patent publication US7528259B2, “Derivatives of 4,5,6,7-tetrabromobenzimidazole and method of their preparation” (Selvita SP. Z O. O., priority 2004, dated 2009):
# Read-outs that look alike come from different tables or passages of the source.
# How the values were obtained:
# CK2 = target: T1, CK2 (Rattus norvegicus, UniProt P19139); experiment: CK2 phosphorylation assay, kinetic determination of inhibition constant; format: biochemical
# T1 construct: Native CK1 (nCK1) and CK2 (nCK2) were purified from rat liver; from tissue; host or cells: rat liver
# T1 sequence (P19139 whole entry): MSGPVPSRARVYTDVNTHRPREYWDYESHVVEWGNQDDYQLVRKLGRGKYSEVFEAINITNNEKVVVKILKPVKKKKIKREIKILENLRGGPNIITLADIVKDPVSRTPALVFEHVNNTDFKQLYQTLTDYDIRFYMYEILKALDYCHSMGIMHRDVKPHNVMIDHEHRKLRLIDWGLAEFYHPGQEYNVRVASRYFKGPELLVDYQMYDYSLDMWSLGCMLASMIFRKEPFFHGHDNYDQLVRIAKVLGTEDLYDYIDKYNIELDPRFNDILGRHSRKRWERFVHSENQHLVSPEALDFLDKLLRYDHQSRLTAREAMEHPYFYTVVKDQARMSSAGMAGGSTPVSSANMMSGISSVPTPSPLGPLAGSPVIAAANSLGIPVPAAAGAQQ
# T1 sequence (P67874 2-215 partner limits assumed): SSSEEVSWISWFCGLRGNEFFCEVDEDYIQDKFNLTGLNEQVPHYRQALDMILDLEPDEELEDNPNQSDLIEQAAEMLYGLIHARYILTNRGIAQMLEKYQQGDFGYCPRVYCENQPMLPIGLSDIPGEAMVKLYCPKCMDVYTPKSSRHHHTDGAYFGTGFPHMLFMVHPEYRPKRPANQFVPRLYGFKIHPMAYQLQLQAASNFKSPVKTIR
# [1] = system: G-CK (casein kinase from Golgi apparatus); experiment: Enzymatic activity of kinases, residual activity with inhibitor; format: biochemical, rat; conditions: inhibitor at 10 μM; percentage activity without an inhibitor
# Procedure: (§1) Tests of enzymatic activity of kinases were carried out using methodology described by Sarno et al. 2003 and are summarized in Table 1. […] Native CK1 (nCK1) and CK2 (nCK2) were purified from rat liver (Meggio et al., 1981); Golgi CK (G-CK), purified from rat lactating mammary gland, was provided by Dr. A. M. Brunati (Padova, Italy). Protein tyrosine kinases Lyn, c-Fgr, Syk (also termed TPK-IIB) were purified from rat spleen as previously referenced (Sarno et al., 2003). Human recombinant α and β subunits of CK2 were expressed in E. coli and the holoenzyme was reconstituted and purified as previously described (Sarno et al., 1996). The […] and […] CK2 mutants were obtained as described previously (Sarno et al., 2003). […] double mutant was obtained with the “QuikChange-SiteDirected Mutagenesis” kit (Stratagene), using human […] cDNA α inserted in pT7-7 vector as template and two synthetic oligonucleotide primers, [NT] and [NT], each complementary to opposite strands of template. Expression and purification of the mutant was performed as previously described (Sarno et al., 2003).
# CK1 (casein kinase 1) = experiment: as above; format: biochemical, rat; conditions: inhibitor at 10 μM; percentage activity without an inhibitor
# Procedure: as §1
# DYRK1a = DYRK1a (Homo sapiens, UniProt Q13627); experiment: as above; format: biochemical; conditions: inhibitor at 10 μM; percentage activity without an inhibitor
# Procedure: Tests of enzymatic activity of kinases were carried out using methodology described by Sarno et al. 2003 and are summarized in Table 1. The residual activity was determined by incubation in the presence of inhibitor at a concentration of 10 μM and expressed as percentage activity without an inhibitor.
# Saccharomyces cerevisiae piD261 was provided by Dr. S. Facchin (Padova, Italy). The source of all the other protein kinases used for specificity assays is either described or referenced by Davies et al. (2000).
# [2] = system: human leukemia Jurkat cells; experiment: Caspase activation by Western blot of PARP and HS1 degradation; format: cell-based; conditions: 14 hours, 5 or 10 uM, FIG. 2
# Procedure: Leukemia Jurkat cells were incubated for 14 hours without the addition of 2-dimethylamino-4,5,6,7-tetrabromobenzimidazole (C), and in a medium including 5 or 10 uM of 2-dimethylamino-4,5,6,7-tetrabromobenzimidazole and 50 ng/mL of antiFas (aF), a control substance to follow the apoptosis process.
# (§2) The human leukemia Jurkat T-cell line was maintained in RPMI-1640, supplemented with 10% (v/v) fetal calf serum, 2 mM L-glutamine, 100 units/ml penicillin and 100 ug/ml streptomycin. For the treatment, cells were suspended at a density of 10^6 cells/ml in a medium containing 1% (v/v) fetal calf serum, then incubated at 37° C., in the presence of the compounds at the indicated concentrations. Control cells were treated with equal amounts of solvent inhibitor was solved. At the end of incubations, cells were lysed by the addition of hypoosmotic buffer, as previously described (Sarno et al., 2003).
# (§3) Cell viability was assessed by means of 3-(4,5-dimethylthiazol-2-yl)-3,5-diphenyltriazolium bromide (MTT) reagent, while caspase activation was followed by Western blot monitoring of PARP and HS1 protein degradation, as previously described (Ruzzene et al., 2002).
# isolated mitochondria = experiment: Depolarization of isolated mitochondria
# [3] = system: human leukemia Jurkat T cells; experiment: Cytotoxic effect, MTT viability assay; format: cell-based; conditions: 24 hours
# Procedure: Leukemia Jurkat cells were incubated for 24 hours in a medium of increasing concentration of 4,5,6,7-tetrabromobenzimidazole (TBB) or 2-dimethylamino-4,5,6,7-tetrabromobenzimidazole (K25). The cytotoxic effect was assessed by means of staining with a use of MTT, (3-(4,5-dimethylthiazol-2-yl)-3,5-diphenyltriazolium bromide, reagent. Control cells were incubated in a medium with added solvent (DMSO, 05% v/v). The results were calculated as mean values of three experiments. The resulting cytotoxic effect of 4,5,6,7-tetrabromo-2-dimethylaminobenzimidazole on human leukemia Jurkat T cells is presented in FIG. 1. […].
# as §2, with “At the end of incubations, cells were lysed by the addition of hypoosmotic buffer, as previously described (Sarno et al., 2003).” left out
# as §3
# [4] = CK2, competitive with respect of ATP, read-out: Inhibition constant Ki
compound,measurement,setting,value
"CN(C)CCNc1nc2c(Br)c(Br)c(Br)c(Br)c2[nH]1 [2-(2-Dimethylaminoethylamino)-4,5,6,7-tetrabromo-1H-benzimidazole]",melting point,,> 250 °C (dec.)
same,Ki,CK2,160 nM
"Nc1nc2c(Br)c(Br)c(Br)c(Br)c2[nH]1 [2-amino-4,5,6,7-tetrabromobenzimidazole, reference compound]",Ki,CK2; [4],90 nM
"Brc1c(Br)c(Br)c2[nH]nnc2c1Br [TBB, 4,5,6,7-tetrabromobenzotriazole, reference compound]",Residual activity of G-CK,[1],95 percentage
same,Residual activity of CK1,CK1 (casein kinase 1),91 percentage
same,Residual activity of DYRK1a,DYRK1a,22 percentage
"CN(C)c1nc2c(Br)c(Br)c(Br)c(Br)c2[nH]1 [Example K25, 2-Dimethylamino-4,5,6,7-tetrabromo-1H-benzimidazole]",Activation of caspase (degradation of HS1 and PARP),[2],Activation of caspase
same,Depolarization of isolated mitochondria,isolated mitochondria,does not cause depolarization
same,Residual activity of G-CK,[1],92 percentage
same,Residual activity of CK1,CK1 (casein kinase 1),87 percentage
same,Residual activity of DYRK1a,DYRK1a,2 percentage
same,Cytotoxic effect compared with TBB,[3]; FIG. 1,several times higher
same,Cytotoxic effect compared with TBB,"[3]; FIG. 1, listed as 2-dimethylamino-4,5,6,7-tetrabromobenzimidazole",several times more active
"CNc1nc2c(Br)c(Br)c(Br)c(Br)c2[nH]1 [2-Methylamino-4,5,6,7-tetrabromo-1H-benzimidazole]",melting point,,283 to 285 °C
same,Ki,CK2; [4],90 nM
"CC(C)Nc1nc2c(Br)c(Br)c(Br)c(Br)c2[nH]1 [2-Isopropylamine-4,5,6,7-tetrabromo-1H-benzimidazole]",melting point,,288 to 290 °C (dec.)
same,Ki,CK2; [4],60 nM
"CC(O)CNc1nc2c(Br)c(Br)c(Br)c(Br)c2[nH]1 (stereo not drawn) [2-(2-hydroxypropylamino)-4,5,6,7-tetrabromo-1H-benzimidazole]",melting point,,258 to 260 °C
same,Ki,CK2; [4],140 nM
"OCCNc1nc2c(Br)c(Br)c(Br)c(Br)c2[nH]1 [2-Ethanolamine-4,5,6,7-tetrabromo-1H-benzimidazole]",melting point,,216 to 218 °C
same,Ki,CK2; [4],130 nM
